# Measurements from US10421778B2, “Isoform-selective lysine deacetylase inhibitors” (WASHINGTON UNIVERSITY, priority 2015, dated 2019).
# Marks after values point to notes of the source that are not given here.
# Experiments:
# Experiment in all cases: KDAC inhibition assay, Caliper EZ Reader II
# Type in all cases: biochemical
# Conditions in all cases: % inhibition at 30 μM
# [1] = target: T1, recombinant human KDAC8 (Homo sapiens, UniProt Q9BY41)
# T1 construct: purchased BPS Bioscience
# T1 sequence (Q9BY41 1-377): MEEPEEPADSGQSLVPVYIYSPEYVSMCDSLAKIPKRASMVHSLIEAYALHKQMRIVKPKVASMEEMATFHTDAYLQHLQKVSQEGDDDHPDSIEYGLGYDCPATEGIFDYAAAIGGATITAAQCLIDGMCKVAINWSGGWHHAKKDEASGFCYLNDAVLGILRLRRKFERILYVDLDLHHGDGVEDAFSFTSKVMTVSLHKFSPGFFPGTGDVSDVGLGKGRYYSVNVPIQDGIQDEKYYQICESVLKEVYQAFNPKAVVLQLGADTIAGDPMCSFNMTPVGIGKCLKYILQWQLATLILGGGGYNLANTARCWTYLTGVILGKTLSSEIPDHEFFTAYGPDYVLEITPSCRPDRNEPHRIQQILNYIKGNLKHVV
# [2] = target: T2, recombinant human KDAC3 (Homo sapiens, UniProt O15379)
# T2 construct: purchased BPS Bioscience
# T2 sequence (O15379 whole entry): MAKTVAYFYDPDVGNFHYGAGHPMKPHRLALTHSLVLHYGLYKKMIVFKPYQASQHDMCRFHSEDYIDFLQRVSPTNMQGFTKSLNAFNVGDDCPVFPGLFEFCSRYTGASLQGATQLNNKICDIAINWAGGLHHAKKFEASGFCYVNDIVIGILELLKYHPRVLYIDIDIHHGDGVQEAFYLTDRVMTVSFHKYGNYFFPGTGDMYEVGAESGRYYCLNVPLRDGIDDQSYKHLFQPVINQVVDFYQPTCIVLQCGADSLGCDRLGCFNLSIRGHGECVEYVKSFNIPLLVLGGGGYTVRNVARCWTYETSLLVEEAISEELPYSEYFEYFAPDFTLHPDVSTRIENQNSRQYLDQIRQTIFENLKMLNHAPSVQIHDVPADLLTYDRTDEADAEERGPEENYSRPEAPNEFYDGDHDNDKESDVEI
# T2 sequence (Q9Y618 395-489 partner limits assumed): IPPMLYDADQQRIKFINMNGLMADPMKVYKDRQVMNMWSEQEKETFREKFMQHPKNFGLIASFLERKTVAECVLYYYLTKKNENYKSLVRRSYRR
# [3] = target: T3, recombinant human KDAC1 (Homo sapiens, UniProt Q13547)
# T3 construct: purchased BPS Bioscience
# T3 sequence (Q13547 whole entry): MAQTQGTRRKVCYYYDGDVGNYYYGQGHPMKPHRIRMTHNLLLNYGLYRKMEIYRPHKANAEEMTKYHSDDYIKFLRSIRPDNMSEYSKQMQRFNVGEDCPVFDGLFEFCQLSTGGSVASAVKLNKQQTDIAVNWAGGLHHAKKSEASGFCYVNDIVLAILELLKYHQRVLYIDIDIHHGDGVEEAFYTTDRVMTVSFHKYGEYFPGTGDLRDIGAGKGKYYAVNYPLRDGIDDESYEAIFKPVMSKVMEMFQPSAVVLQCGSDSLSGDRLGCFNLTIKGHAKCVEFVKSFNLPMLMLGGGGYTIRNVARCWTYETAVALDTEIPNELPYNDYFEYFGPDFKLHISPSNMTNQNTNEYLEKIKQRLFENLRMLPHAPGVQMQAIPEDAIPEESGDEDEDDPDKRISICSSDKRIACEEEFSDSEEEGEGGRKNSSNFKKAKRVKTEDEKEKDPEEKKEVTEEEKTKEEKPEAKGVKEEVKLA
# [4] = target: T4, recombinant human KDAC6 (Homo sapiens, UniProt Q9UBN7)
# T4 construct: purchased BPS Bioscience
# T4 sequence (Q9UBN7 1-1215): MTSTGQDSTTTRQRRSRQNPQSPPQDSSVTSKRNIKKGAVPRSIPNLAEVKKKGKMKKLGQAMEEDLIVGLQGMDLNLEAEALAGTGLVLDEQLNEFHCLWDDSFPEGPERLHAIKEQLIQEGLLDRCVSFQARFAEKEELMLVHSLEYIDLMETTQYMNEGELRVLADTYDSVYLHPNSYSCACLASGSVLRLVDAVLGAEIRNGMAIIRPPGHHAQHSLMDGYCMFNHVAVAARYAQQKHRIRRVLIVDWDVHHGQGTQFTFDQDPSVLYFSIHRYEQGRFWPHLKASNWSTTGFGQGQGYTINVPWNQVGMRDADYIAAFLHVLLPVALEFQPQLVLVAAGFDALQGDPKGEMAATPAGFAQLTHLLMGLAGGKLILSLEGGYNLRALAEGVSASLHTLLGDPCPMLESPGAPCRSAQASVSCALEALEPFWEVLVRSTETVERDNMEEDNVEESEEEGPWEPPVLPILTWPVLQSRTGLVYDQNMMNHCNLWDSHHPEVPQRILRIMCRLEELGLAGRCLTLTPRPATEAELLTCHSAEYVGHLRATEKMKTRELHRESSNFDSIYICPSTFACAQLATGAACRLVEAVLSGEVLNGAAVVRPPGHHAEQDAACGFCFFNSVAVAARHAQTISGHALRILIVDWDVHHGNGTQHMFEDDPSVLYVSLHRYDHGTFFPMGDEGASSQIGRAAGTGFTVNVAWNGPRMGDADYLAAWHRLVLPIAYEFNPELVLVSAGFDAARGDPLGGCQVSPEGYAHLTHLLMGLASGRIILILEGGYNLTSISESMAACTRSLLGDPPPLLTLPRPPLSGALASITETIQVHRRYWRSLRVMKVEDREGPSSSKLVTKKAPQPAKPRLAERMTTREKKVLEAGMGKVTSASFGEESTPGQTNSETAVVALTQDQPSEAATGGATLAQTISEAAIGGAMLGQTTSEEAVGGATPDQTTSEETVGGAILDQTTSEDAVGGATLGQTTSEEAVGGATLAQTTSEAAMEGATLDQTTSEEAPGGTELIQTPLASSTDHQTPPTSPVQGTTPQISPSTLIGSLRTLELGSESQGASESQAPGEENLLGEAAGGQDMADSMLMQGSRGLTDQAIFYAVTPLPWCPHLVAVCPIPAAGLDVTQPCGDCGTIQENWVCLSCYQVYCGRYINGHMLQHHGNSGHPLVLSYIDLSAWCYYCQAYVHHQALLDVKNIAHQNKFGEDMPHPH
Substance,KDAC Inhibition Activity KDAC8 (% inhibition) [1],KDAC Inhibition Activity KDAC3 (% inhibition) [2],KDAC Inhibition Activity KDAC1 (% inhibition) [3],KDAC Inhibition Activity KDAC6 (% inhibition) [4]
Cyclo-Asp(^DPro-Pro-Val)-NHCH2CH2CH2COOH [Compound 13a],3%,Not active,Not active,Not active
Cyclo-Asp(^DPro-Pro-Val)-NHCH2CH2CH2COOMe [Compound 12a],Not active,2%,54.6%,Not active
Cyclo-Asp(^DPro-Pro-Val)-NHCH2CH2CH2NH2 [Compound 16a],22%^a,14%^a,Not active,2%^a
Cyclo-Asp(^DPro-Pro-Val)-NHCH2CH2CH2OH [Compound 10a],26%,1%,Not active,1%
Cyclo-Asp(^DPro-Pro-Val)-NHCH2CH2CH2S(═O)2CH3 [Compound 9a],17%,4%,Not active,Not active
Cyclo-Asp(^DPro-Pro-Val)-NHCH2CH2CH2S(═O)CH3 [Compound 8a],30%,Not active,Not active,Not active
Cyclo-Asp(^DPro-Pro-Val)-NHCH2CH2CH2SCH3 [Compound 7a],5%,Not active,Not active,6%
Cyclo-Asp(^DPro-Pro-Val)-NHCH2CH2CH2SH [Compound 6a],6%,17-31% 24% average,8%,15-36% 26% average
Cyclo-Asp(^DPro-Pro-Val)-NHCH2CH2SH [Compound 5a],12%,Not active,Not active,14%
Cyclo-Asp(^DPro-Pro-Val)-NHCH2CH2S—SCH2CH2NH2 [Compound 15a],1%,Not active,Not active,Not active
Cyclo-Asp(^DPro-Pro-Val)-NHCH2CH2S—SCH2CH2NHP(O)(OPh) [Compound 11a],31%,10%,2.5%,Not active
Cyclo-^DAsp(Pro-^DPro-Val)-NHCH2CH2CH2COOMe [Compound 23b],7%,Not active,1%,5%
Cyclo-^DAsp(Pro-^DPro-Val)-NHCH2CH2CH2S(═O)CH3 [Compound 20b],10%,16%,1%,1%
Cyclo-^DAsp(Pro-^DPro-Val)-NHCH2CH2CH2SCH3 [Compound 19b],27%,Not active,1%,Not active
Cyclo-^DAsp(^DPro-Pro-Val)-NHCH2CH2CH2CONHOH [Compound 14b],21%,27%,12.5%,53%
Cyclo-^DAsp(^DPro-Pro-Val)-NHCH2CH2CH2COOH [Compound 13b],Not active,Not active,2.5%,Not active

# Now from value to substance:
KDAC Inhibition Activity KDAC8 (% inhibition) [1],KDAC Inhibition Activity KDAC3 (% inhibition) [2],KDAC Inhibition Activity KDAC1 (% inhibition) [3],KDAC Inhibition Activity KDAC6 (% inhibition) [4],Substance
31%,13%,Not active,6%,Cyclo-^DAsp(Pro-^DPro-Val)-NHCH2CH2CH2CONHOH [Compound 25b]
38%,9%,Not active,Not active,Cyclo-^DAsp(Pro-^DPro-Val)-NHCH2CH2CH2COOH [Compound 24b]
12%,5%,Not active,Not active,Cyclo-^DAsp(Pro-^DPro-Val)-NHCH2CH2CH2OH [Compound 22b]
8%,Not active,Not active,12%,Cyclo-^DAsp(Pro-^DPro-Val)-NHCH2CH2CH2S(═O)2CH3 [Compound 21b]
Not active,15%,9.5%,48%,Cyclo-^DAsp(Pro-^DPro-Val)-NHCH2CH2CH2SH [Compound 18b]
Not active,Not active,Not active,18%,Cyclo-^DAsp(Pro-^DPro-Val)-NHCH2CH2SH [Compound 17b]
4%,Not active,Not active,13%,Cyclo-^DAsp(Pro-^DPro-Val)-NHCH2CH2S—SCH2CH2NH2 [Compound 26b]
